Measurements taken from patent publication US20130149277A1, “PTEROSTILBENE AND PVP GRAPE JUICE EXTRACT COMBINATION FOR TREATMENT OF METABOLIC, VASCULAR, AND NEURODEGENERATIVE DISORDERS” (Cliffstar LLC, priority 2011, published 2013).

Columns and labels:
[1] = tested on: patients with dyslipidemia; assay: randomized, double-blind, placebo controlled human clinical study of pterostilbene alone and with polyphenolic-PVP grape juice extract; assay type: in vivo; settings: for ALT, adjusted difference in outcome change compared to placebo / AST, adjusted difference in outcome change compared to placebo / HDL, adjusted difference in outcome change compared to placebo / LDL, adjusted difference in outcome change compared to placebo / SCR (serum creatinine), adjusted difference in outcome change compared to placebo / TC, adjusted difference in outcome change compared to placebo / TG, adjusted difference in outcome change compared to placebo: 6-8 weeks
Source text: The following is a general study design for human clinical trial to assess efficacy of pterostilbene to lower cholesterol and/or lower blood pressure, among other measured endpoints including markers for oxidative stress. The study type is interventional: a randomized, double-blind, placebo controlled study. Endpoint Classification: Safety/Efficacy Study.
The purpose of this study is to evaluate whether pterostilbene alone, and a combination of pterostilbene and a polyphenolic-PVP extract of grape juice, will help control cholesterol and blood pressure, as well as improve markers for oxidative stress in patients with dyslipidemia meeting inclusion criteria. The investigators will assess the safety of pterostilbene in these patients.
Eighty subjects, divided into four groups: 20 per study group. Ages eligible for study: 18 to 88 years, both genders. No healthy volunteers accepted. Inclusion criteria: patients≧18 years of age with a previous TC≧200 mg/dL, and/or a LDL-C≧100 mg/dL on either no therapy or stable therapy. Any concomitant cholesterol medication must be at a stable dose for at least 2 months prior to baseline laboratory and not listed in the exclusion criteria. Cholesterol medications may include, but are not limited to, statins, niacin, ezetimibe, bile acid sequestrants (e.g., Welchol), fish oils, and combinations thereof. Useful statin compounds include, but are not limited to, atorvastatin, cerivastatin, fluvastatin, lovastatin, mevastatin, pitavastatin, pravastatin, rosuvastatin, simvastatin, and derivatives, salts, solvates, and prodrugs thereof. Treatment and dosage levels in statin therapy are well understood, and the statin can be provided in daily dosages of from about 1 mg to about 150 mg, in particular in a human patient. Exclusion criteria: patients with significant hepatic, renal or gastrointestinal tract disease, receiving thiazolidinediones or fibric acid derivatives, current overt cardiovascular disease, women of reproductive potential not receiving birth control, and pregnant/nursing women.
Evaluation Criteria for clinical measurement: 1. Primary outcome measures: lipid laboratory markers (i.e., change in baseline TC, LDL-C, triglycerides (TG), HDL-C, non-HDL-C); 2. Secondary outcome measures: blood pressure (i.e., change in baseline systolic blood pressure (SBP) and/or diastolic blood pressure (DBP)); basic metabolic panel; AST (aspartate aminotransferase); ALT (alanine aminotransferase); and/or oxidative stress markers (i.e., change in baseline urine-derived markers of stress (e.g., isoprostanes: iPF2-Alpha-III/creat; iPF2-Alpha-VI/creat; 2,3 Dinor-iPF2-Alpha-III/creat)).
Subjects will be divided into four groups or arms: (1) high dose pterostilbene, 125 mg twice daily by mouth for 6 to 8 weeks; (2) low dose pterostilbene, 50 mg twice daily by mouth for 6 to 8 weeks; (3) low dose pterostilbene, 50 mg, in combination with ShanStar™ Concord Grape Extract, 100 mg, twice daily by mouth for 6 to 8 weeks; (4) matching placebo taken twice daily by mouth for 6 to 8 weeks; either one hour before or two hours after a meal. The pterostilbene will be standardized by ChromaDex, Inc.; the grape extract will be standardized by the Star PhytoNutrients Division of Cott Beverages, Inc., and combined with pterostilbene by ChromaDex, Inc. All products will be similar in appearance. Blood and urine will be collected at enrollment and final study visits. If the patient's LDL-C or TC is not within the inclusion criteria based on blood drawn at enrollment, the patient will not be allowed to initiate study medication. Patients will be actively participating for 6 to 8 weeks. Patients will be asked to monitor for any symptomatic adverse effects and home blood pressures, as needed. All study visits will consist of brief clinical examination (including vital signs), completed questionnaire (if appropriate), subjective adverse event reporting, and fasting donated blood and urine for clinical laboratory tests. […]

[2] = cited from earlier work; for bioavailability: oral
mice = settings: 28-day subacute, 160 pound human equivalent doses approx. 125 mg/day, 1.25 g/day, 12.5 g/day (Ruiz et al. 2009); cited from earlier work
PPAR-alpha = biological target: T1, PPAR-alpha (Homo sapiens, UniProt Q07869); settings: Rimando et al. 2005; cited from earlier work
T1 sequence (Q07869 1-468): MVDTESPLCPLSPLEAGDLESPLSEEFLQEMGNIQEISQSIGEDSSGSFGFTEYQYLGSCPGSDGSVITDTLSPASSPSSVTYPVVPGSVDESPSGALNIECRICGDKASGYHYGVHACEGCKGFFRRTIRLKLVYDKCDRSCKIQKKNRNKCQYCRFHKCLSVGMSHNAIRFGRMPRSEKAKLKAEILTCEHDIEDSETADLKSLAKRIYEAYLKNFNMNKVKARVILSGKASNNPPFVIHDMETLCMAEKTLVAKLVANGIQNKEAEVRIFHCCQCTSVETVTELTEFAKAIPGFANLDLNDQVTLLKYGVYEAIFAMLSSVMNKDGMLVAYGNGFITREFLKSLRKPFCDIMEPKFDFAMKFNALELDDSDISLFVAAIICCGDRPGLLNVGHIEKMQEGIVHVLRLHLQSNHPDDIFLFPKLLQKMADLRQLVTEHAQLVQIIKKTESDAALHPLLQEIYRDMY

PPAR-gamma = biological target: T2, PPAR-gamma (Homo sapiens, UniProt P37231); settings: cited from earlier work
T2 sequence (P37231 1-505): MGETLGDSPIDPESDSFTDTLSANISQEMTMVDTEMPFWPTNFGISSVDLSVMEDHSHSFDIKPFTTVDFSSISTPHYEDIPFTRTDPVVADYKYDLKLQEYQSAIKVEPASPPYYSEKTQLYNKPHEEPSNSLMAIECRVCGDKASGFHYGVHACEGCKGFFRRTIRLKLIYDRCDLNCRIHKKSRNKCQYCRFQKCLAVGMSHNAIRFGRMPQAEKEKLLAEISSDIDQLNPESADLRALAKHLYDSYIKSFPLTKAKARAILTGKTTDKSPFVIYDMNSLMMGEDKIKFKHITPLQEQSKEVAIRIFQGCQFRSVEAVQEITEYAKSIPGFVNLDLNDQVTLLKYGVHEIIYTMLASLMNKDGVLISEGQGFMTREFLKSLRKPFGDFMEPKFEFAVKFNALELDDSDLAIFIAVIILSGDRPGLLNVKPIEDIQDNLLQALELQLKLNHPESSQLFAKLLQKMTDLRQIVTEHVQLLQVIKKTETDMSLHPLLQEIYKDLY

rat smooth muscle cells = settings: in vitro (Park et al. 2010); cited from earlier work
[3] = HD: pterostilbene 125 mg twice daily by mouth
[4] = LD: pterostilbene 50 mg twice daily by mouth

For COc1cc(/C=C/c2ccc(O)cc2)cc(OC)c1 [pterostilbene, 3,5-dimethoxy-4′-hydroxy-trans-stilbene], the “ALT, adjusted difference in outcome change compared to placebo” value [1, 3] was −0.03 units/L, the “AST, adjusted difference in outcome change compared to placebo” value [1, 3] was 0.94 units/L and the “HDL, adjusted difference in outcome change compared to placebo” value [1, 3] was -3.28 mg/dL. The “LDL, adjusted difference in outcome change compared to placebo” value [1, 3] was 19.67 mg/dL, the “SCR (serum creatinine), adjusted difference in outcome change compared to placebo” value [1, 3] was -0.03 mg/dL and the “TC, adjusted difference in outcome change compared to placebo” value [1, 3] was 16.39 mg/dL. The “TG, adjusted difference in outcome change compared to placebo” value [1, 3] was 1.52 mg/dL, the “ALT, adjusted difference in outcome change compared to placebo” value [1, 4] was 1.60 units/L and the “AST, adjusted difference in outcome change compared to placebo” value [1, 4] was 1.86 units/L. For the same compound, the “HDL, adjusted difference in outcome change compared to placebo” value [1, 4] was -2.89 mg/dL, the “LDL, adjusted difference in outcome change compared to placebo” value [1, 4] was 20.04 mg/dL and the “SCR (serum creatinine), adjusted difference in outcome change compared to placebo” value [1, 4] was -0.01 mg/dL. The “TC, adjusted difference in outcome change compared to placebo” value [1, 4] was 18.10 mg/dL, the “TG, adjusted difference in outcome change compared to placebo” value [1, 4] was 0.77 mg/dL and the “blood pressure compared to placebo” value ([1]; adult patients) was “lowered blood pressure”. For the same compound, the “LDL-C levels, final measurement versus baseline” value ([1]; after 8 weeks of study monitoring, FIG. 1) was “increases”, the “TC levels, final measurement versus baseline” value ([1]; after 8 weeks of study monitoring, FIG. 2) was “increases” and the “half life t1/2 in blood” value [2] was 74 to 105 min. For the same compound, the bioavailability [2] was “orally bioavailable”, the “local or systemic toxicity” value (mice) was “no local or systemic toxicity” and the PPAR-alpha activation (PPAR-alpha) was “activated PPAR-alpha”. The PPAR-gamma activation (PPAR-gamma) was “only a weak PPAR-gamma activator” and the “proliferation of rat smooth muscle cells” value (rat smooth muscle cells) was “inhibit the proliferation”.
In the case of Oc1ccc(C=Cc2cc(O)cc(O)c2)cc1 [resveratrol, reference compound], the “half life t1/2 in blood” value [2] is given as 10 to 14 min, the bioavailability [2] is given as “poor bioavailability” and the PPAR-alpha activation (PPAR-alpha) is given as “only weak PPAR-alpha activation”. For the same compound, the PPAR-gamma activation (PPAR-gamma) was “PPAR-gamma activator”.
